Data on one compound can be found in PMC3231940, “Disposition, metabolism and mass balance of [^14C]apremilast following oral administration” (Xenobiotica; the Fate of Foreign Compounds in Biological …, 2011).

The structures appear in SMILES notation.

Series [1] is described as follows: Total radioactivity pharmacokinetics in plasma and whole blood. In kind it is in vivo, human. Conditions: single oral 20-mg dose. On the procedure:
Each subject was administered a single oral suspension of 20 mg (100 μCi) of [^14C] apremilast in distilled water (240mL total volume). Subjects were fasted for 8 h prior to and 4 h following dose administration. The residual radioactivity in the dosing vials was determined and accounted for approximately 0.3% of the total radioactivity. Dose administration, sample collection, sample processing and determination of total radioactivity were conducted at MDS Pharma Services (Lincoln, NE). Determination of apremilast in plasma, metabolite profiling and metabolite characterization were performed at XenoBiotic Laboratories, Inc. (Plainsboro, NJ).
Urine was collected pre-dose, 0-4, 4-8, 8-12, 12-24 and every 24 h thereafter up to 216h (9 days) following dose administration and was stabilized with one volume of pH 1.5 Sorensen's citrate buffer (25-mM sodium citrate buffer adjusted to pH 1.5). […] Blood (two 5-mL samples for plasma radioactivity counting, a 3-mL sample for whole blood radioactivity counting, a 2-mL sample for apremilast analysis and a 10-mL sample for metabolite profiling) was collected into heparinized tubes at pre-dose, 0.5, 1, 1.5, 2, 2.5, 3, 4, 6, 8, 12, 16, 24, 36, 48, 72, 96, 120, 144 and 168 h following dose administration. Blood samples collected for radioactivity counting were stored at or below -20°C until analysed. […] All urine, faecal homogenates and plasma samples were stored at or below -20°C until analysed.
All radioactivity determinations were performed using a Tri-Carb model 1600TR liquid scintillation counter (PerkinElmer, Wellesley, MA). For plasma and urine analysis, duplicate samples of a known volume were mixed with Ultima Gold XR scintillation cocktail and directly analysed by liquid scintillation counting. […] Using these criteria, the lower limit of quantification in plasma, blood, urine and faeces were 2.07 ng [^14C]apremilast equivalent/mL (ngEq/mL), 2.61 ngEq/g, 1.89 ngEq/mL and 2.52 ngEq/g, respectively. […]

Series [2] has as its system PDE4 enzyme isolated from U937 human monocytic cells. Briefly: PDE4 inhibition, cAMP hydrolysis assay. In kind it is biochemical. Conditions: PDE4 from U937 cells, cAMP hydrolysis. On the procedure:
PDE4 enzyme was isolated from U937 human monocytic cells and used for testing inhibition in a cAMP hydrolysis assay as previously described ([Schafer et al. 2010]). For the TNF-α production assay, human peripheral blood mono-nuclear cells (PBMC) were isolated from buffy coat of normal donor blood units (Blood Center of New Jersey, East Orange, NJ) by density centrifugation over Ficoll Hypaque (Pharmacia, Piscataway, NJ). Cells were cultured in RPMI 1640 (Life Technologies, Grand Island, NY) supplemented with 5% AB^+ human serum (Gemini Bio-products, Woodland, CA), 2-mM L-glutamine, 100-U/mL penicillin and 100-μg/mL streptomycin (Life Technologies). PBMC (2×10^5 cells) were plated in 96-well flat-bottom Costar tissue culture plates (Corning, NY) in duplicate. Cells were stimulated with lipopolysaccharides (LPS) (from Salmonella abortus equi; Sigma cat.no. L-1887, St.Louis, MO) at a final concentration of 1 ng/mL in the absence or presence of compounds. The compounds were dissolved in DMSO (Sigma) and subsequent dilutions were done in culture medium immediately before use. The compounds were added to cells 1 h before LPS stimulation. The cells were incubated for 16-18 h at 37°C in 5% CO2, and super-natants were then collected, diluted with culture medium and assayed for TNF-α levels by enzyme-linked immunosorbent assay (ThermoFisher, Rockford, IL). Fifty percent inhibitory concentrations (IC50) for the PDE4 enzymatic and TNF-α assay were calculated by non-linear regression analysis using Prism 5.1 (GraphPad Software). Regression curves were sigmoidal dose response curves with maximum and minimum constrained to 100% and 0%, respectively.

With `CCOc1cc([C@@H](CS(C)(=O)=O)N2C(=O)c3cccc(NC(C)=O)c3C2=O)ccc1OC` [Apremilast, (+)-N-[2-[(lS)-1-(3-ethoxy-4-methoxyphenyl)-2-(methylsulfonyl)ethyl]-1,3-dioxo-2,3-dihydro-lH-isoindol-4-yl]acetamide], in series [1], the “Share of AUC0-∞ for radioactivity in plasma between 0 and 96 h” value is recorded as “approximately 90%”; the “Share of AUC0-∞ for radioactivity in plasma from AUC96-∞” value worked out at 10%. Also, in series [1] (median (min-max), listed as [^14C]apremilast), the “Plasma total radioactivity Tmax” value is under 2 h. This compound also yielded a half-maximal inhibitory concentration (IC50) in series [2] of 74 nM.
